Literature values as cited in PMC2033546, “Effects of somatostatin analogue RC-160 and bombesin/gastrin-releasing peptide antagonists on the growth of human small-cell and non-small-cell lung carcinomas in nude mice” (British Journal of Cancer, 1994).

Experiments:
SCLC xenografts = conditions: nude mice; ref Alexander et al., 1988; cited from earlier work
Text: (§1) Br. J. Cancer (1994). 70, 886 892 ? Macmillan Press Ltd..

EGF receptors = conditions: various cancer lines and cancer specimens; ref Liebow et al., 1992; cited from earlier work
Text: as §1

SCLC = conditions: in vitro; ref Carney et al., 1987; cited from earlier work
Text: as §1

Bombesin
Effect on growth of SCLC xenografts (in words) (SCLC xenografts): stimulates | Effect on phosphorylation of EGF receptors (in words) (EGF receptors): enhance the phosphorylation of EGF receptors | Effect on clonal growth of SCLC and DNA synthesis (in words) (SCLC): stimulates the clonal growth of SCLC and DNA synthesis in vitro
